Experimental data published in patent US9695155B2, “Herbicidal substituted pyrimidinyloxy benzene compounds” (E. I. DU PONT DE NEMOURS AND COMPANY, priority 2013, dated 2017).

Assays:
[1] = tested on: sedge, umbrella; experiment: Test B flooded paddy test; format: in vivo, Cyperus difformis; settings: Flood, 250 g ai/ha; 0 to 100 scale where 0 is no effect and 100 is complete control
Method in brief: (§1)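 2-leaf stage plants; pots flooded to 3 cm, compound added to paddy water, depth maintained. Greenhouse 13–15 d. Visual rating vs untreated controls, 0 (no effect) to 100 (complete control); dash = no result.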

[2] = tested on: blackgrass; experiment: Test A postemergence; format: in vivo, Alopecurus myosuroides; settings: 0 to 100 scale, 0 no effect, 100 complete control
Method in brief: (§2)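 Pre- and postemergence greenhouse screen. Soil: loam + sand. Spray carrier: solvent mixture, non-phytotoxic, with surfactant. Post timing at 1–2 leaves, height 2–10 cm. Readout: visual injury on a 0–100 scale roughly 10 days after application, untreated plants as reference.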

[3] = tested on: Italian ryegrass; experiment: Test A postemergence; format: in vivo, Lolium multiflorum; settings: 0 to 100 scale, 0 no effect, 100 complete control
Method in brief: as §2

[4] = tested on: barnyardgrass; experiment: Test A postemergence; format: in vivo, Echinochloa crus-galli; settings: 0 to 100 scale, 0 no effect, 100 complete control
Method in brief: as §2

[5] = tested on: wheat; experiment: Test A postemergence; format: in vivo, Triticum aestivum; settings: 0 to 100 scale, 0 no effect, 100 complete control
Method in brief: as §2

[6] = tested on: pigweed; experiment: Test A postemergence; format: in vivo, Amaranthus retroflexus; settings: 0 to 100 scale, 0 no effect, 100 complete control
Method in brief: as §2

[7] = tested on: Heteranthera limosa; experiment: Test B flooded paddy test; format: in vivo; settings: Flood, 250 g ai/ha; 0 to 100 scale where 0 is no effect and 100 is complete control
Method in brief: as §1

[8] = tested on: pigweed; experiment: Test A preemergence; format: in vivo, Amaranthus retroflexus; settings: for Plant response rating, Pigweed: 31 g ai/ha, 0 to 100 scale where 0 is no effect and 100 is complete control, visual, approximately 10 days; for Pigweed plant response rating (0 to 100 scale): 125 g ai/ha
Method in brief: as §2

[9] = tested on: giant foxtail; experiment: Test A preemergence; format: in vivo, Setaria faberii; settings: for Plant response rating, Foxtail, Giant: 31 g ai/ha, 0 to 100 scale where 0 is no effect and 100 is complete control, visual, approximately 10 days; for Foxtail, Giant plant response rating (0 to 100 scale): 125 g ai/ha
Method in brief: as §2

[10] = tested on: corn; experiment: Test A postemergence; format: in vivo, Zea mays; settings: 0 to 100 scale, 0 no effect, 100 complete control
Method in brief: as §2

[11] = tested on: barnyardgrass; experiment: Test B flooded paddy test; format: in vivo, Echinochloa crus-galli; settings: Flood, 250 g ai/ha; 0 to 100 scale where 0 is no effect and 100 is complete control
Method in brief: as §1

[12] = tested on: kochia; experiment: Test A postemergence; format: in vivo, Kochia scoparia; settings: 0 to 100 scale, 0 no effect, 100 complete control
Method in brief: as §2

[13] = tested on: ragweed; experiment: Test A preemergence; format: in vivo, Ambrosia elatior; settings: for Plant response rating, Ragweed: 31 g ai/ha, 0 to 100 scale where 0 is no effect and 100 is complete control, visual, approximately 10 days; for Ragweed plant response rating (0 to 100 scale): 125 g ai/ha
Method in brief: as §2

[14] = tested on: kochia; experiment: Test A preemergence; format: in vivo, Kochia scoparia; settings: for Plant response rating, Kochia: 31 g ai/ha, 0 to 100 scale where 0 is no effect and 100 is complete control, visual, approximately 10 days; for Kochia plant response rating (0 to 100 scale): 125 g ai/ha
Method in brief: as §2

[15] = tested on: giant foxtail; experiment: Test A postemergence; format: in vivo, Setaria faberii; settings: 0 to 100 scale, 0 no effect, 100 complete control
Method in brief: as §2

[16] = tested on: rice; experiment: Test B flooded paddy test; format: in vivo, Oryza sativa; settings: Flood, 250 g ai/ha; 0 to 100 scale where 0 is no effect and 100 is complete control
Method in brief: as §1

[17] = tested on: galium; experiment: Test A postemergence; format: in vivo, Galium aparine; settings: 0 to 100 scale, 0 no effect, 100 complete control
Method in brief: as §2

[18] = tested on: Italian ryegrass; experiment: Test A preemergence; format: in vivo, Lolium multiflorum; settings: for Plant response rating, Ryegrass, Italian: 31 g ai/ha, 0 to 100 scale where 0 is no effect and 100 is complete control, visual, approximately 10 days; for Ryegrass, Italian plant response rating (0 to 100 scale): 125 g ai/ha
Method in brief: as §2

[19] = tested on: ragweed; experiment: Test A postemergence; format: in vivo, Ambrosia elatior; settings: 0 to 100 scale, 0 no effect, 100 complete control
Method in brief: as §2

[20] = tested on: barnyardgrass; experiment: Test A preemergence; format: in vivo, Echinochloa crus-galli; settings: for Plant response rating, Barnyardgrass: 31 g ai/ha, 0 to 100 scale where 0 is no effect and 100 is complete control, visual, approximately 10 days; for Barnyardgrass plant response rating (0 to 100 scale, 0 is no effect, 100 is complete control): 125 g ai/ha
Method in brief: as §2

Row | SMILES | Plant response rating, Sedge, Umbrella [1] | Plant response rating, Blackgrass ([2]; 31 g ai/ha) | Plant response rating, Blackgrass ([2]; 125 g ai/ha) | Plant response rating, Ryegrass, Italian ([3]; 31 g ai/ha) | Plant response rating, Ryegrass, Italian ([3]; 125 g ai/ha) | Plant response rating, Barnyardgrass ([4]; 31 g ai/ha) | Plant response rating, Barnyardgrass ([4]; 125 g ai/ha) | Plant response rating, Wheat ([5]; 31 g ai/ha) | Plant response rating, Wheat ([5]; 125 g ai/ha) | Plant response rating, Pigweed ([6]; 31 g ai/ha) | Plant response rating, Pigweed ([6]; 125 g ai/ha) | Plant response rating, Ducksalad [7] | Plant response rating, Pigweed [8] | Pigweed plant response rating (0 to 100 scale) [8] | Plant response rating, Foxtail, Giant [9] | Foxtail, Giant plant response rating (0 to 100 scale) [9] | Plant response rating, Corn ([10]; 31 g ai/ha) | Plant response rating, Corn ([10]; 125 g ai/ha) | Plant response rating, Barnyardgrass [11] | Plant response rating, Kochia ([12]; 31 g ai/ha) | other results
1 | Cc1cc(C(F)F)nn1-c1ccccc1Oc1ncc(Cl)cn1 [Compound 267] | 0 | 0 | 0 | 0 | 0 | 0 | 0 | 0 | 0 | 0 | 0 | 0 | 0 | 0 | 0 | 0 | 0 | 0 | 0 | 0 | Plant response rating, Kochia ([12]; 125 g ai/ha): 0; Plant response rating, Ragweed [13]: 0; Ragweed plant response rating (0 to 100 scale) [13]: 0; Plant response rating, Kochia [14]: 0; Kochia plant response rating (0 to 100 scale) [14]: 0; Plant response rating, Foxtail, Giant ([15]; 31 g ai/ha): 0; Plant response rating, Foxtail, Giant ([15]; 125 g ai/ha): 0; Plant response rating, Rice [16]: 0; Plant response rating, Galium ([17]; 31 g ai/ha): 0; Plant response rating, Galium ([17]; 125 g ai/ha): 10; Plant response rating, Ryegrass, Italian [18]: 0; Ryegrass, Italian plant response rating (0 to 100 scale) [18]: 0; Plant response rating, Ragweed ([19]; 31 g ai/ha): 0; Plant response rating, Ragweed ([19]; 125 g ai/ha): 0; Plant response rating, Barnyardgrass [20]: 0; Barnyardgrass plant response rating (0 to 100 scale, 0 is no effect, 100 is complete control) [20]: 0
2 | Clc1cnc(Oc2ccccc2-n2cccc2)nc1 [Compound 269] | 0 | 0 | 0 | 0 | 0 | 0 | 0 | 0 | 0 | 0 | 0 | 0 | 0 | 0 | 0 | 0 | 0 | 0 | 0 | 0 | Plant response rating, Kochia ([12]; 125 g ai/ha): 0; Plant response rating, Ragweed [13]: 0; Ragweed plant response rating (0 to 100 scale) [13]: 0; Plant response rating, Kochia [14]: 0; Kochia plant response rating (0 to 100 scale) [14]: 0; Plant response rating, Foxtail, Giant ([15]; 31 g ai/ha): 0; Plant response rating, Foxtail, Giant ([15]; 125 g ai/ha): 0; Plant response rating, Rice [16]: 0; Plant response rating, Galium ([17]; 31 g ai/ha): 0; Plant response rating, Galium ([17]; 125 g ai/ha): 0; Plant response rating, Ryegrass, Italian [18]: 0; Ryegrass, Italian plant response rating (0 to 100 scale) [18]: 0; Plant response rating, Ragweed ([19]; 31 g ai/ha): 0; Plant response rating, Ragweed ([19]; 125 g ai/ha): 0; Plant response rating, Barnyardgrass [20]: 0; Barnyardgrass plant response rating (0 to 100 scale, 0 is no effect, 100 is complete control) [20]: 0
